Biological target: human plasma protein factor Xa (Homo sapiens (Human), UniProt P00742)
Experiment: FXa inhibitory activity, IC50 determination (cleavage of paranitroanilide substrate S-2765)
Format: biochemical
Details: factor Xa 1 nM, S2765 100 μM, Tris buffered saline pH 7.4
Text: This example illustrates methods for evaluating the compounds, along with results obtained for such assays. As mentioned above, the compound may be selected based on its factor Xa inhibitory activity. The in vitro factor Xa activities of the compounds can be determined by various procedures known in the art. […] The IC50 value is the concentration (in nM) of the compound required to provide 50% inhibition of factor Xa proteolytic activity.
An in vitro assay for detecting and measuring inhibition activity against factor Xa is as follows:
The substrate S-2765 (Z-D-Arg-Gly-Arg-pNA.HCl) can be obtained from Diapharma (West Chester, Ohio).
The human plasma protein factor Xa can be purchased from Haematologic Technologies (Essex Junction, Vt.).
All assays, which are performed in 96-well microtiter plates, measure proteolytic activity of the enzyme (factor Xa) by following cleavage of a paranitroanilide peptide substrate. The assay buffer used for proteolytic assays was Tris buffered saline (20 mM Tris, 150 mM NaCl, 5 mM CaCl2, 0.1% Bovine serum albumin (BSA), 5% dimethly sulfoxide (DMSO) pH 7.4). In a 96-well microtiter plate, inhibitor was serially diluted to give a range of final concentrations from 0.01 nM to 10 μM. Duplicate sets of wells were assayed and control wells without inhibitor were included. Enzyme was added to each well, (factor Xa concentration=1 nM), the plate was shaken for 5 seconds and then incubated for 5 minutes at room temperature. S2765 was added (100 μM final) and the plate was shaken for 5 seconds (final volume in each well was 200 μL). The degree of substrate hydrolysis was measured at 405 nm on a Thermomax plate reader (Molecular Devices, Sunnyvale, Calif.) for 2 minutes. The initial velocities of substrate cleavage (mOD/min), for each range of inhibitor concentrations, were fitted to a four parameter equation using Softmax data analysis software. The parameter C, derived from the resulting curve-fit, corresponded to the concentration for half maximal inhibition (IC50).

Sequence of human plasma protein factor Xa (P00742 41-179): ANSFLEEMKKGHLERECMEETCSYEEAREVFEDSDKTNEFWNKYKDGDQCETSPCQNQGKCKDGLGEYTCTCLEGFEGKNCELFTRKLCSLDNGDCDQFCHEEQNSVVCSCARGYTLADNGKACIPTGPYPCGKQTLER
Sequence of human plasma protein factor Xa (P00742 235-488): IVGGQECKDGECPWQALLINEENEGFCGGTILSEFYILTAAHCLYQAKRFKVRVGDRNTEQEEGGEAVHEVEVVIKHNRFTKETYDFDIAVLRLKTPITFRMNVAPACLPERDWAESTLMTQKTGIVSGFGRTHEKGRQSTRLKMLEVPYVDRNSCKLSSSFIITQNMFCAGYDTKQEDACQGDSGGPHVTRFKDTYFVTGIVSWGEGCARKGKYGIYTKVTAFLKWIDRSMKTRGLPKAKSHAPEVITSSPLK

Row | Structure (SMILES) | IC50 [nM]
1 | CN(C)C(=N)c1ccc(C(=O)Nc2ccc(OCC(=O)NCCCCCCN)cc2C(=O)Nc2ccccn2)cc1 | 227
2 | CN(C)C(=N)c1ccc(C(=O)Nc2ccc(OCC(=O)NCCCCCCN)cc2C(=O)Nc2ccc(Cl)cn2)cc1 | 24
3 | NCCCCCCNc1cc(C(F)(F)F)ccc1C(=O)Nc1ccc(Cl)cc1C(=O)Nc1ccc(Cl)cn1 | 615
4 | CS(=O)(=O)c1ccc(C(=O)Nc2ccc(Cl)cc2C(=O)Nc2ccc(Cl)cn2)c(NCCCCCCN)c1 | 158
5 | CS(=O)(=O)c1ccc(C(=O)Nc2ccc(Cl)cc2C(=O)Nc2ccc(Cl)cn2)c(NCCCCCCCN)c1 | 320
